Experimental data taken from patent US20240425491A1, “HETEROARYL COMPOUNDS USEFUL IN THE TREATMENT OF COGNITIVE DISORDERS” (University College Cardiff Consultants Limited, priority 2021, published 2024).
pKi: −log10 of the molar value.

How the values were obtained:
[1] = target: T1, human recombinant GABAAR containing α5β3γ2 subunits (benzodiazepine site) (Homo sapiens, UniProt P18507+P31644); test: In vitro radioligand binding assay (α5-GABAAR Ki); conditions: inhibition of [3H]Ro15-1788 binding, membranes of L(tk−) cells expressing human α5β3γ2; read-out: α5-GABAAR Ki
T1 construct: expressed in transfected cells; host or cells: mouse L(tk−) cells, dexamethasone-inducible vector pMSGneo
T1 sequence (P31644 32-462): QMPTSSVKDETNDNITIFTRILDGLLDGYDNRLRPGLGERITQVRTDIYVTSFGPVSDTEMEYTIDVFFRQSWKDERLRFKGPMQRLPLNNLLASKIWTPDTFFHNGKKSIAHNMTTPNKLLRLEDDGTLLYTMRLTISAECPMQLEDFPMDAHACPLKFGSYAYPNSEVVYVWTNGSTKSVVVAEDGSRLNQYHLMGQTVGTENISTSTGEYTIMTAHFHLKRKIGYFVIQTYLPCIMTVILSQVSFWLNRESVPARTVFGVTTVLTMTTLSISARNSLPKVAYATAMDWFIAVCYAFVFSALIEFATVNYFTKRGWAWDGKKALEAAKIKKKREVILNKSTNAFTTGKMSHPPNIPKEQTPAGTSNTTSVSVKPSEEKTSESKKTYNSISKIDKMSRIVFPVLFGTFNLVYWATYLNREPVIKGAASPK
T1 sequence (P28472 26-473 partner): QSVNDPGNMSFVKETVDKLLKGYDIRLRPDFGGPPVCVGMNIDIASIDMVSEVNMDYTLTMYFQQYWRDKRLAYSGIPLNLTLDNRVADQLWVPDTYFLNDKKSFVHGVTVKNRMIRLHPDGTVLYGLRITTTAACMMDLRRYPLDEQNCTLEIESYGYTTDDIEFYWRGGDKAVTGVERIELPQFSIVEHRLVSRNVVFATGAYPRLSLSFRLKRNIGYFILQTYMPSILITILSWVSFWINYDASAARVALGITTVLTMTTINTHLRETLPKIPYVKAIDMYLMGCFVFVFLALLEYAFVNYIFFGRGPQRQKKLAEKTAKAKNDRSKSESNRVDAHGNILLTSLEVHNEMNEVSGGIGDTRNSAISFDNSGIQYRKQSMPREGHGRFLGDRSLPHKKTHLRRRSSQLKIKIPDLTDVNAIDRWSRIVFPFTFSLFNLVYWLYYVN
T1 sequence (P18507 40-475): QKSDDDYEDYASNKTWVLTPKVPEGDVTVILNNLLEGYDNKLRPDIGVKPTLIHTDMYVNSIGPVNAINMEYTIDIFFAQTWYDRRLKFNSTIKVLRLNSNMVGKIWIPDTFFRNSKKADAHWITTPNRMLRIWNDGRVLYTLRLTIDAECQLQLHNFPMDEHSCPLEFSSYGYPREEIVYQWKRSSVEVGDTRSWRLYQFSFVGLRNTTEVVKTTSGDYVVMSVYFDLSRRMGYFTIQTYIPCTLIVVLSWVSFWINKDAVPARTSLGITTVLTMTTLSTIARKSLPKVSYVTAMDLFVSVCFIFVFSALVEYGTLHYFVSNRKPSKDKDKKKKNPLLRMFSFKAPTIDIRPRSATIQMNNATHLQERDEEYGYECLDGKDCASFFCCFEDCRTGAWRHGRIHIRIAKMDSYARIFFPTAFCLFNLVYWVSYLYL
Method in brief: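 Membranes from mouse L(tk^−) cells stably expressing human α5β3γ2 GABAAR incubated 1 h at 4° C with 4 nM [^3H]Ro15-1788 and test compound; nonspecific binding with 1 μM TP003. Filter-bound radioactivity counted; Ki from IC50 by Cheng-Prusoff using measured Kd.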

[2] = target: T2, human α5β3γ2L GABAA receptors in HEK293 cells (Homo sapiens, UniProt P18507+P31644); test: In vitro electrophysiological recording assay (α5-GABAAR relative efficacy), SyncroPatch; assay type: cell-based; conditions: GABA EC10-20
T2 construct: expressed in transfected cells
T2 sequence (P31644 32-462): as the sequence (P31644 32-462) above
T2 sequence (P28472 26-473 partner): as the sequence (P28472 26-473 partner) above
T2 sequence (P18507 40-475): as the sequence (P18507 40-475) above
Description: Mouse L(tk^−) cells stably expressing human α1β3γ2, α2β3γ2, α3β3γ2, α5β3γ2 GABAARs generated by transfection of the individual subunits in the dexamethasone-inducible expression vector pMSGneo in mouse L(tk^−) cells (Hadingham et al., 1993, Mol. Pharmacol. 43:970-975 and 1993, Mol. Pharmacol. 44:1211-1218) were used for binding and functional assays. For certain compounds, HEK293 cells stable expressing the human α1β3γ2L, α2β3γ2L, α3β3γ2L and α5β3γ2L GABAA receptors were used to evaluate their functional effects in a SyncroPatch electrophysiology assay.
The efficacy of modulators was evaluated using either the automated patch-clamp platform QPatch16 (Sophion, Copenhagen, Denmark) or the SyncroPatch 384i (Nanion Technologies, Germany). Cells were harvested from flasks by enzymatic dissociation and re-suspended in serum-free medium.
For the Syncropatch recordings, a stacked addition protocol was used, in which GABA was rapidly applied and then washed off from the cell. All experiments were carried out at room temperature (20-22° C.) using a standard whole cell procedure. The currents recorded were acquired at 2 kHz and filtered using a Bessel filter. Whole-cell currents were measured at a holding potential of −80 mV.
For Syncropatch recordings, the extracellular recording solution contained: 140 mM NaCl, 4 mM KCl, 2 mM CaCl2), 1 mM MgCl2, 10 mM HEPES, 5 mM glucose (pH 7.4 and osmolarity of c. 300-310 mOsm/L). The intracellular recording solution contained: 90 mM KCl, 50 mM KF, 1.5 mM MgCl2, 11.1 mM EGTA and 10 mM HEPES (pH 7.2 and osmolarity of c. 300 mOsm/L). 2 mM of NaATP was added to the intracellular solution on the day of testing.
The effects of modulators were evaluated in the presence of a submaximal GABA concentration, giving typically 10-20% activation (GABA EC10-20) of the response elicited by a saturating GABA concentration. For QPatch recordings, to check and ensure baseline current stability before compound addition, five consecutive applications of GABA EC10-20 alone (each application with a 2 s duration, separated by minimum 1 min wash off periods) were performed before compound addition. The test compound was applied using the pipetting system of the QPatch system 1 min at least prior to co-application with GABA EC10-20. For SyncroPatch recordings, GABA EC20 alone was applied three times (1 s long applications, with wash steps in-between) before compound addition. This was followed by a 1-2 min pre-incubation with the test compound and then re-application of GABA EC10-20 in the presence of the compound. Finally, following a further wash step, a saturating concentration of GABA was applied, allowing the accurate evaluation for each cell of the percentage baseline activation elicited by the submaximal GABA applied.
The compounds were first dissolved in DMSO as a 10 mM stock and then further diluted to the testing concentrations so that the final DMSO concentration in the extracellular recording solution was kept constant at 0.1% for the QPatch recordings, or 0.2% for the SyncroPatch recordings.
The % efficacy of modulators was determined from the GABA elicited currents recorded in the presence and absence of the test compound, using the formula:
[((compound peak current−leak)−(GABA peak current−leak))/(GABA peak current−leak)]*100,
where ‘leak’ is the leak baseline current at −65 mV, ‘compound peak current’ is the current elicited by co-application of compound and GABA, and ‘GABA peak current’ is the current elicited by GABA alone during the 5th GABA application. The results were presented as ‘relative efficacy’ for each compound generally at a concentration equal or higher than 100 times their determined Ki. The relative efficacy of a compound was calculated by normalising its efficacy to the efficacy of methyl-6,7-dimethoxy-4-ethyl-beta-carboline-3-carboxylate (DMCM) that was separately determined produced an attenuation of GABA-induced currents of −57±4%, n=5.

[3] = target: T3, human α5β3γ2 GABAARs in mouse L(tk−) cells (Homo sapiens, UniProt P18507+P31644); test: In vitro electrophysiological recording assay (α5-GABAAR relative efficacy), QPatch; assay type: cell-based; conditions: GABA EC10-20
T3 construct: expressed in transfected cells; host or cells: mouse L(tk−) cells, dexamethasone-inducible vector pMSGneo
T3 sequence (P31644 32-462): as the sequence (P31644 32-462) above
T3 sequence (P28472 26-473 partner): as the sequence (P28472 26-473 partner) above
T3 sequence (P18507 40-475): as the sequence (P18507 40-475) above
Method in brief: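 Whole-cell QPatch recordings at 20-22° C, −65 mV holding, in dexamethasone-induced (1 μM, 24 h) L(tk−) cells. Compound pre-applied ≥1 min, then co-applied with GABA EC10-20; percentage change in leak-corrected peak current, taken at ≥100× Ki, normalised to DMCM efficacy; 0.1% DMSO final.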

pKi [1]	α5-GABAAR Relative Efficacy (to DMCM), SyncroPatch ([2]; Conc 0.1 μM)	SMILES	other results
8.82	−0.67	Cc1onc(-c2ccc(F)cc2)c1C(=O)Nc1ccc(-c2cnc(N)nc2)nc1OC1COC1 [Example 216, N-[6-(2-Aminopyrimidin-5-yl)-2-(oxetan-3-yloxy)-3-pyridyl]-3-(4-fluorophenyl)-5-methyl-isoxazole-4-carboxamide]	–
8.19	−0.16	COCCOc1nc(-c2cnc(N)nc2)ccc1NC(=O)c1c(-c2ccc(F)cc2)noc1C [Example 217, N-[6-(2-Aminopyrimidin-5-yl)-2-(2-methoxyethoxy)-3-pyridyl]-3-(4-fluorophenyl)-5-methyl-isoxazole-4-carboxamide]	–
8.72	−1.05	COc1nc(-c2cnc(CN3CCOCC3)nc2)ccc1NC(=O)c1c(-c2ccccc2)noc1C [Example 181, N-[2-Methoxy-6-[2-(morpholinomethyl)pyrimidin-5-yl]-3-pyridyl]-5-methyl-3-phenyl-isoxazole-4-carboxamide]	–
9.40	−0.81	Cc1onc(-c2ccccc2)c1C(=O)Nc1ccc(-c2cnc(N)nc2)nc1OC(C)C [Example 214, N-[6-(2-Aminopyrimidin-5-yl)-2-isopropoxy-3-pyridyl]-5-methyl-3-phenyl-isoxazole-4-carboxamide]	–
8.89	−0.68	COc1nc(-c2ccc(CN3CC4COCC(C4)C3)cc2)ccc1NC(=O)c1c(-c2ccccc2)noc1C [Example 228, N-[2-methoxy-6-[4-(3-oxa-7-azabicyclo[3.3.1]nonan-7-ylmethyl)phenyl]-3-pyridyl]-5-methyl-3-phenyl-isoxazole-4-carboxamide]	–
8.36	–	COc1nc(-c2ccc(CO)cc2)ccc1NC(=O)c1c(-c2ccccc2)noc1C [Example 219, N-[6-[4-(hydroxymethyl)phenyl]-2-methoxy-3-pyridyl]-5-methyl-3-phenyl-isoxazole-4-carboxamide]	α5-GABAAR Relative Efficacy (to DMCM), SyncroPatch ([2]; Conc 0.03 μM): −0.45
8.89	−1.00	COc1nc(-c2ccc(CN3CC4(COC4)C3)nc2)ccc1NC(=O)c1c(-c2ccccc2)noc1C [Example 231, N-(6′-((2-oxa-6-azaspiro[3.3]heptan-6-yl)methyl)-6-methoxy-[2,3′-bipyridin]-5-yl)-5-methyl-3-phenylisoxazole-4-carboxamide]	–
7.06	−0.79	COc1nc(-c2cnoc2)ncc1NC(=O)c1c(-c2ccccc2)noc1C [Example 229, N-(2-isoxazol-4-yl-4-methoxy-pyrimidin-5-yl)-5-methyl-3-phenyl-isoxazole-4-carboxamide]	–
9.40	−0.85	COc1nc(-c2cnc(N)nc2)ccc1NC(=O)c1c(-c2ccc(F)cc2)noc1C [Example 213, N-[6-(2-Aminopyrimidin-5-yl)-2-methoxy-3-pyridyl]-3-(4-fluorophenyl)-5-methyl-isoxazole-4-carboxamide]	–
8.89	−1.06	COc1nc(-c2cnc(N)nc2)ncc1NC(=O)c1c(-c2ccccc2)noc1C [Example 223, N-(2′-amino-4-methoxy-[2,5′-bipyrimidin]-5-yl)-5-methyl-3-phenylisoxazole-4-carboxamide]	–
7.80	–	COc1nc(-c2c(C)nn(C)c2C)ccc1NC(=O)c1c(-c2ccccc2)noc1C [Example 22, N-[2-Methoxy-6-(1,3,5-trimethylpyrazol-4-yl)-3-pyridyl]-5-methyl-3-phenyl-isoxazole-4-carboxamide]	α5-GABAAR Relative Efficacy (to DMCM), Qpatch ([3]; Conc 3 μM): 0.15
8.10	–	COc1nc(-c2ccc3[nH]nnc3c2)ccc1NC(=O)c1c(-c2ccccc2)noc1C [Example 49, N-[6-(1H-Benzotriazol-5-yl)-2-methoxy-3-pyridyl]-5-methyl-3-phenyl-isoxazole-4-carboxamide]	α5-GABAAR Relative Efficacy (to DMCM), Qpatch ([3]; Conc 1 μM): −0.83
8.82	–	COc1nc(-c2cnnn2C)ccc1NC(=O)c1c(-c2ccccc2)noc1C [Example 102, N-(2-Methoxy-6-(1-methyl-1H-1,2,3-triazol-5-yl)pyridin-3-yl)-5-methyl-3-phenyl-isoxazole-4-carboxamide]	α5-GABAAR Relative Efficacy (to DMCM), Qpatch ([3]; Conc 0.3 μM): −0.79
7.51	–	CNc1ncc(-c2ccc(NC(=O)c3c(C)nnn3-c3ccccc3)c(OC)n2)cn1 [Example 166, N-(2-Methoxy-6-(2-(methylamino)pyrimidin-5-yl)pyridin-3-yl)-4-methyl-1-phenyl-1H-1,2,3-triazole-5-carboxamide]	α5-GABAAR Relative Efficacy (to DMCM), Qpatch ([3]; Conc 3 μM): −0.98
7.98	–	COc1nc(-c2cnc(OCC(F)(F)F)nc2)ccc1NC(=O)c1c(-c2ccccc2)noc1C [Example 59, N-[2-Methoxy-6-[2-(2,2,2-trifluoroethoxy)pyrimidin-5-yl]-3-pyridyl]-5-methyl-3-phenyl-isoxazole-4-carboxamide]	α5-GABAAR Relative Efficacy (to DMCM), Qpatch ([3]; Conc 3 μM): −0.75
8.34	–	COc1nc(-c2cnoc2)cnc1NC(=O)c1c(-c2ccccc2)noc1C [Example 120, N-(5-Isoxazol-4-yl-3-methoxy-pyrazin-2-yl)-5-methyl-3-phenyl-isoxazole-4-carboxamide]	α5-GABAAR Relative Efficacy (to DMCM), Qpatch ([3]; Conc 1 μM): −0.73
8.10	–	COc1nc(-c2ccnc(N(C)C)c2)ccc1NC(=O)c1c(-c2ccccc2)noc1C [Example 82, N-(2′-(Dimethylamino)-6-methoxy-[2,4′-bipyridin]-5-yl)-5-methyl-3-phenyl-isoxazole-4-carboxamide]	α5-GABAAR Relative Efficacy (to DMCM), Qpatch ([3]; Conc 1 μM): −0.65
8.16	–	COc1nc(-c2cncc(N)n2)ccc1NC(=O)c1c(-c2ccccc2)noc1C [Example 40, N-[6-(6-Aminopyrazin-2-yl)-2-methoxy-3-pyridyl]-5-methyl-3-phenyl-isoxazole-4-carboxamide]	α5-GABAAR Relative Efficacy (to DMCM), Qpatch ([3]; Conc 1 μM): −0.57

SMILES	pKi [1]	α5-GABAAR Relative Efficacy (to DMCM), SyncroPatch ([2]; Conc 0.1 μM)	other results
Cc1onc(-c2ccc(F)cc2)c1C(=O)Nc1ccc(-c2cnc3n2CCN(C)C3)nc1OC(C)C.Cl [Example 209, 3-(4-Fluorophenyl)-N-(2-isopropoxy-6-(7-methyl-5,6,7,8-tetrahydroimidazo[1,2-a]pyrazin-3-yl)pyridin-3-yl)-5-methylisoxazole-4-carboxamide hydrochloride]	9.52	−0.60	–
